The values below come from patent US8771611B2, “System and methods of log-scale concentration gradients” (Auburn University, priority 2011, dated 2014).

For test [1], the target named is matrix metalloproteases-9 (MMP-9) (Homo sapiens, UniProt P14780). Briefly: on-chip (microfluidic chip) logistic dose response of MMP-9 inhibitors, fluorogenic MMP substrate III. Type of test: biochemical. To be noted: for deviation in the IC50 values between on-chip and off-chip experiment: comparison on-chip vs off-chip; for IC50: on-chip, 22.15 μM substrate, 5 nM enzyme, inhibitor range 0.063 nM~250 nM, four parameter logistic fit, read-out: IC50 (on-chip, from dose response plots).
Description: Therefore, a concentration range of 0 to 1000×, in logarithmic scale, is able to be generated in a single experiment.
To determine the kinetic parameters, KM and kcat, the initial velocities of the individual reactions are able to be curve-fitted with the Michaelis-Menten equation using the enzyme kinetics module of Sigmaplot software (Systat software Inc.). For IC50 values with standard error, and 95% confidence interval, the four parameter nonlinear-logistic-regression model available to the inhibition data are curve-fitted. The four parameter model is of the form as shown in the equation (1) below.
[formula] Where, IC50 refers to median point of the concentration-response plot; [I] represents the concentration of inhibitor; h is the Hill coefficient or Hill slope, which means the steepness of dose-response plot; %I designates percentage inhibiting potency, including minimum and maximum.
Therefore, by introducing the three concentrations of inhibitor and buffer, meaningful logarithmic concentrations for dose response are generated such as 0, 1, 2.5, 5, 7.5, 10, 25, 50, 75, 100, 250, 500, 750 and 1000× by the device disclosed herein in semi-direct dilution.
An inhibitor concentration range of 0.063 nM˜250 nM (1:4000) is created on the chip in the 14 reactors. Note that, all the 14 reactors are used considering the requirement of a wider concentration range of inhibitors (FIG. 2D), 22.15 μM of substrate and 5 nM of enzyme are used, respectively.
The substrate QXLTM520-Pro-Leu-Gly-Cys-(Me)-His-Ala-D-Arg-Lys-(5-carboxy-fluorescein)-NH2 (AnaSpec Inc), internally quenched peptide matrix of matrix metalloproteinases-9 (MMP-9) is used for the enzyme reaction. This substrate releases fluorescent signals through dissociation of the quencher (QXLTM520) and carboxyfluorescein (FAM), fluorophore, via proteolytic cleavage by enzymatic reaction. […] For establishing a standard curve, reference dye, FAM-Pro-Leu-OH is used. The excitation and emission wavelengths for FAM are 480 nm and 520 nm, respectively. According to the enzyme reaction types, 50 nM, 10 nM, and 5 nM of MMP-9 are separately dissolved into the reaction buffer (TCNBT; 50 mM Tris, 10 mM CaCl2, 150 mM NaCl, 0.05% Brij-35, 0.05% Tween-20 and 0.1% BSA at pH 7.5). For the substrate of MMP, a stock solution is prepared as 100 μM in TCNBT buffer. […] Prepared reagents are stored at −20 ° C. until dilution with TCNBT buffer for experiment.

For test [2], the target named is T1, MMP-9 enzyme (Homo sapiens, UniProt P14780). Briefly: off-chip experiment, IC50 of MMP-9 inhibitors. Type of test: biochemical. As to conditions: read-out: IC50 from the off-chip experiment. The text has this:
These deviations in the values of IC50 are acceptable, considering enzyme as a biological sample with variable properties.

The target of test [3] is T1, MMP-9 enzyme. To be noted: from some literature; read-out: reported IC50 values from literature; cited from earlier work.

Like-named read-outs stand apart in the source and are kept apart here.

T1 sequence (P14780 94-707): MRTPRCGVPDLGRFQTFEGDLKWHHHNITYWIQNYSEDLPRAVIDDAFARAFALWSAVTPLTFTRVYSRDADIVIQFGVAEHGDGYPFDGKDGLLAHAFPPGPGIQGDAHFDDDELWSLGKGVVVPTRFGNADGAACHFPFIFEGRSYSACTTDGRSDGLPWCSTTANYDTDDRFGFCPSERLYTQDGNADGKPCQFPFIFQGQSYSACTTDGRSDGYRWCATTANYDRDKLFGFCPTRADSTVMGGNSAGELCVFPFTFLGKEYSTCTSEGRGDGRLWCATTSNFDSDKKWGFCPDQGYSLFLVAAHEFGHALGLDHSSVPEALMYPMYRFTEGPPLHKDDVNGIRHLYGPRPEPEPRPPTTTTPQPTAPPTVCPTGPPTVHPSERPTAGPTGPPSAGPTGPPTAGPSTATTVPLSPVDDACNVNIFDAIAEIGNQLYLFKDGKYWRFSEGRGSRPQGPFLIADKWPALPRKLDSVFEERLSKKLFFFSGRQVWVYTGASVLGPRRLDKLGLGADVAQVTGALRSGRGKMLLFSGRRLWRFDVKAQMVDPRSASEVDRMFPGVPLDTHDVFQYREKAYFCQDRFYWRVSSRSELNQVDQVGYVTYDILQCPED
Chain of matrix metalloproteases-9 (MMP-9) (P14780 94-707): as above

On to `CNC(=O)[C@@H](NC(=O)[C@H](CC(C)C)[C@H](O)C(=O)NO)C(C)(C)C` [marimastat], for which the “deviation in the IC50 values between on-chip and off-chip experiment” value in test [1] was 3.2%.

As to `CC(C)(NS(=O)(=O)c1ccc(Oc2ccc(F)cc2)cc1)C(=O)NO` [CP417474], in test [1], the “deviation in the IC50 values between on-chip and off-chip experiment” value is on record as 20%. Besides, the IC50 (in general, the concentration that gives 50% inhibition) was found to be 11.9 ± 1 nM in test [1] and 14.9 ± 0.9 nM at MMP-9 enzyme [2].

On to `CNC(=O)[C@H](Cc1ccccc1)NC(=O)[C@H](CC(C)C)[C@H](CSc1cccs1)C(=O)NO` [batimastat], for which the IC50 in test [1] was 4.1 ± 0.2 nM; at MMP-9 enzyme [2] it was 3.5 ± 0.3 nM; on MMP-9 enzyme [3], 3 to 4 nM.
